Data reported in PMC9073595, “Synthesis, human topoisomerase IIα inhibitory properties and molecular modeling studies of anti-proliferative curcumin mimics” (RSC Advances, 2019).

Key:
[1] = tested on: RPE1 (normal human immortalized retinal pigment epithelial cell line); assay: MTT assay on normal cells, RPE1; format: cell-based; details: RPE-1, RPE1 normal (non-cancer) cell line, read-out: IC50, μM ± SD, RPE1
Procedure: In-vitro antitumor screening
The targeted piperidinecarboxamides 24‒51 were screened for their antitumor properties against HCT116 (colon), MCF7 (breast) and A431 (squamous skin) carcinoma cell lines by the standard mitochondrial dependent reduction of yellow MTT [3-(4,5-dimethylthiazol-2-yl)-2,5-diphenyl-tetrazolium bromide] to purple formazan technique.11 Cells were suspended in McCoy’s 5A medium for HCT116, DMEM for MCF-7 and A431 in addition to 1% antibiotic–antimycotic mixture (10000 μg ml-1 potassium penicillin, 10000 μg ml-1 streptomycin sulfate and 25 μg ml-1 amphotericin B), 10% fetal bovine serum and 1% L-glutamine at 37 °C, under 5% CO2 and 95% humidity. Cells were seeded at concentration of 30000 cells per well in fresh complete growth medium in 96-well tissue culture microtiter plates for 24 h. Media was aspirated, fresh complete medium was added and cells were incubated with different concentrations of the tested compound to give a final concentration of [50, 25, 12.5 and 6.25 μM ([…] and 0.375 μM for the high potent analogues)]. 0.5% DMSO was used as negative control and 5-fluorouracil was used as positive control (standard reference). Triplicate wells were prepared for each individual dose. After 72 h of incubation, medium was aspirated, 40 μl MTT salt (2.5 mg ml-1) were added to each well and incubated for further 4 h at 37 °C.
To stop the reaction and dissolve the formed crystals, 150 μl of 10% sodium dodecyl sulfate (SDS) in deionized water were added to each well and incubated overnight at 37 °C. The absorbance was then measured at 570 nm and a reference wavelength of 595 nm.
Data were collected as mean values for experiments performed in triplicates for each individual dose which had been measured by MTT assay. Control experiments did […]
survival was calculated according to equ. (1).
Surviving fraction = … . (1)
The synthesized compounds 24‒51 were also tested against RPE1 (normal human immortalized retinal pigment epithelial cell line) cell to determine the toxicity/selectivity […]
towards normal cells relative to the carcinoma cell lines utilized. The IC50 (concentration […]
was determined using Graph-Pad PRISM version-5 software. Statistical calculations for determination of the mean and standard error values were determined by SPSS 16 […]
8:1 which is the ratio between the data points and the number of QSAR descriptor).
Human DNA topoisomerase IIα inhibitory properties

[2] = molecular target: T1, human DNA topoisomerase IIα (Homo sapiens, UniProt P11388); assay: Human DNA topoisomerase IIα activity assay (TopoGEN kit, plasmid based); format: biochemical
T1 construct: purchased TopoGEN, Inc
T1 sequence (P11388 whole entry): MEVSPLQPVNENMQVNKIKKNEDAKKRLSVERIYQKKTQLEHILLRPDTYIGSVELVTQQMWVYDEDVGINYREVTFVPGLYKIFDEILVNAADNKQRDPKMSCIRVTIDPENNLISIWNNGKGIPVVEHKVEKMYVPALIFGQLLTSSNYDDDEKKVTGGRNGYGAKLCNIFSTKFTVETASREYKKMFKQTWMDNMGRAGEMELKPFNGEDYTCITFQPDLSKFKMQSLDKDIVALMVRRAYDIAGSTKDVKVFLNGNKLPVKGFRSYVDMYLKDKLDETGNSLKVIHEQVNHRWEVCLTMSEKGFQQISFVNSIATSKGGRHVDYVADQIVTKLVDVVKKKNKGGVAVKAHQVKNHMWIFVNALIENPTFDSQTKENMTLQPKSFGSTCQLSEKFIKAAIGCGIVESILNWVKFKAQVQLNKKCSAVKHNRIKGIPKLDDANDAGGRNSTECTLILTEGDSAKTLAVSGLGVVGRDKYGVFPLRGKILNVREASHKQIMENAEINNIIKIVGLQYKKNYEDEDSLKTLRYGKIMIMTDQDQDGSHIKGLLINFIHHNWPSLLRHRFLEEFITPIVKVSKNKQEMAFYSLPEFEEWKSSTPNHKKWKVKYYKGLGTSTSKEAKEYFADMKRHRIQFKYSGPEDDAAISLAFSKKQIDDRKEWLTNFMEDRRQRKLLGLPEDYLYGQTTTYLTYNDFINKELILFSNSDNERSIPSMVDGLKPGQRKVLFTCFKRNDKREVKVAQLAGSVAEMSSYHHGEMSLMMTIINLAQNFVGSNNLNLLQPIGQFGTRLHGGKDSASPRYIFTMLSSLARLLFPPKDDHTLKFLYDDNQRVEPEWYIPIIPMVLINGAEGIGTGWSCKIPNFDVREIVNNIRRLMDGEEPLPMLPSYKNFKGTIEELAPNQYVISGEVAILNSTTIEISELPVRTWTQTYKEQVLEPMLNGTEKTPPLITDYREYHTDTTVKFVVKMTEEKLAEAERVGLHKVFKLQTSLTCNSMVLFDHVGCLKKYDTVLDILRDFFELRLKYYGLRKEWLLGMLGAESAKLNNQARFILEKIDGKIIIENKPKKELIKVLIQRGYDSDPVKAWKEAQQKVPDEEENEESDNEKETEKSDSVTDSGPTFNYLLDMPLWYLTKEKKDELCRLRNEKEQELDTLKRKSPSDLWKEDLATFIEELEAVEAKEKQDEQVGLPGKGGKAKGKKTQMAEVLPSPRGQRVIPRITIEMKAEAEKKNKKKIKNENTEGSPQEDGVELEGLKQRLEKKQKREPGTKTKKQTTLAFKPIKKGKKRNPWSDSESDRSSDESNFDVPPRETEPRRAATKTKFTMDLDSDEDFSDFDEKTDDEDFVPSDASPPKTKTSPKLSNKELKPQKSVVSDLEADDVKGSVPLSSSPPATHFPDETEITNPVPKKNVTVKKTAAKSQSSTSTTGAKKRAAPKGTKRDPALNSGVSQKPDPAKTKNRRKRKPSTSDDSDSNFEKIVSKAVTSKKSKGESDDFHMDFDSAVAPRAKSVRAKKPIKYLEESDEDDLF

[3] = tested on: MCF7 (breast) carcinoma cell line; assay: MTT anti-proliferative assay, MCF7; format: cell-based; details: Homo sapiens, MCF7, 72 h; read-out: IC50, μM ± SD, MCF7
[4] = tested on: HCT116 (colon) carcinoma cell line; assay: MTT anti-proliferative assay, HCT116; format: cell-based; details: Homo sapiens, HCT-116, 72 h; read-out: IC50, μM ± SD, HCT116
[5] = tested on: A431 (squamous skin) carcinoma cell line; assay: MTT anti-proliferative assay, A431; format: cell-based; details: Homo sapiens, A-431, 72 h; read-out: IC50, μM ± SD, A431

Structure (SMILES)	IC50 [1] [µM]	IC50 [2] [µM]	IC50 [3] [µM]	melting point [°C]	IC50 [4] [µM]	IC50 [5] [µM]
COc1ccc(/C=C2\CN(C(=O)Nc3ccccc3)C/C(=C\c3ccc(OC)cc3)C2=O)cc1 [Compound 43, 3,5-Bis[(E)-4-methoxybenzylidene]-4-oxo-N-phenylpiperidine-1-carboxamide]	> 50	28.3 ± 1.09	3.96 ± 0.23	190 to 192	1.23 ± 0.15	2.72 ± 0.2
COc1ccc(/C=C2\CN(C(=O)Nc3ccc(OC)cc3)C/C(=C\c3ccc(OC)cc3)C2=O)cc1 [Compound 45, 3,5-Bis[(E)-4-methoxybenzylidene]-N-(4-methoxyphenyl)-4-oxopiperidine-1-carboxamide]	> 50	39.3 ± 1.52	5.85 ± 0.31	212 to 214	1.38 ± 0.15	11.3 ± 1.1
COc1ccc(NC(=O)N2C/C(=C\c3ccc(C)cc3)C(=O)/C(=C/c3ccc(C)cc3)C2)cc1 [Compound 40, N-(4-Methoxyphenyl)-3,5-bis[(E)-4-methylbenzylidene]-4-oxopiperidine-1-carboxamide]	> 50	40.3 ± 1.56	5.1 ± 0.3	230 to 232	2.73 ± 0.2	4.9 ± 0.34
O=C1/C(=C/c2ccc(F)cc2)CN(C(=O)NCc2ccccc2)C/C1=C\c1ccc(F)cc1 [Compound 38, N-Benzyl-3,5-bis[(E)-4-fluorobenzylidene]-4-oxopiperidine-1-carboxamide]	10.9 ± 1.42	35 ± 2.08	2.16 ± 0.15	178 to 180	0.56 ± 0.03	1.33 ± 0.17
CCNC(=O)N1C/C(=C\c2ccc(F)cc2)C(=O)/C(=C/c2ccc(F)cc2)C1 [Compound 37, N-Ethyl-3,5-bis[(E)-4-fluorobenzylidene]-4-oxopiperidine-1-carboxamide]	9.78 ± 1.53	27.2 ± 1.72	2.32 ± 0.3	180 to 182	0.57 ± 0.07	1.18 ± 0.11
COc1ccc(/C=C2\CN(C(=O)NCc3ccccc3)C/C(=C\c3ccc(OC)cc3)C2=O)cc1 [Compound 47, N-Benzyl-3,5-bis[(E)-4-methoxybenzylidene]-4-oxopiperidine-1-carboxamide]	> 50	33 ± 1.28	4.89 ± 0.25	177 to 179	1.29 ± 0.19	7.98 ± 1.34
COc1ccc(NC(=O)N2C/C(=C\c3ccc(F)cc3)C(=O)/C(=C/c3ccc(F)cc3)C2)cc1 [Compound 36, 3,5-Bis[(E)-4-fluorobenzylidene]-N-(4-methoxyphenyl)-4-oxopiperidine-1-carboxamide]	9.46 ± 1.86	23 ± 1.37	1.71 ± 0.12	189 to 191	0.62 ± 0.05	1.31 ± 0.08
